Earlier results in patent publication US7981441B2, “Drug delivery systems using mesoporous oxide films” (The Board of Trustees of the Leland Stanford Junior …, priority 2004, dated 2011).

Experiments:
[1] = 4 to six acrylate sleeves each loaded with 800 micrograms
[2] = system: rabbit neointimal hyperplasia; settings: pLA/pCL copolymer-coated stents containing 200 μg of paclitaxel; months after stent implantation
[3] = system: porcine neointimal hyperplasia; settings: bare stent, dip-coating; 0, 0.2, 15 and 187 μg/stent; at 4 weeks

SMILES | clinical outcome of study [1] | effect on rabbit neointimal hyperplasia [2] | effect on porcine neointimal hyperplasia [3]
CCCCCC(=O)O[C@H]1C[C@H]2OC[C@@]2(OC(C)=O)[C@H]2[C@H](OC(=O)c3ccccc3)[C@]3(O)C[C@H](OC(=O)[C@H](O)[C@@H](NC(=O)c4ccccc4)c4ccccc4)C(C)=C([C@@H](OC(C)=O)C(=O)[C@]12C)C3(C)C [7-hexanoyltaxol] | clinically unpromising |  | 
CC(=O)O[C@H]1C(=O)[C@@]2(C)[C@H]([C@H](OC(=O)c3ccccc3)[C@]3(O)C[C@H](OC(=O)[C@H](O)[C@@H](NC(=O)c4ccccc4)c4ccccc4)C(C)=C1C3(C)C)[C@]1(OC(C)=O)CO[C@@H]1C[C@@H]2O [paclitaxel] |  | virtually abolished | significant dose-dependent inhibition
